Assay results as given in ChEMBL document CHEMBL2062517, “Design, synthesis, and antiviral activity of entry inhibitors that target the CD4-binding site of HIV-1” (J Med Chem, 2012).

Key:
Type in all cases: cell-based
MT2 [1] = experiment: (§1) Cytotoxicity against human MT2 cells after 4 days by XTT assay; settings: mt2, 96 h
[2] = Inhibition of X4-tropic HIV1 3B gp120-mediated entry into human MT2 cells assessed as Inhibition of p24 production incubated overnight followed by compound wash-out measured after 4 days post-infection by multi-cycle neutralization assay; settings: Human immunodeficiency virus 1, 3B, MT2, 96 h
[3] = Cytotoxicity against human TZM-b1 cells after 3 days by XTT assay; settings: for CC50 at 72 h: TZM-b1 cells; for CC50: tzm-b1, 72 h
[4] = Inhibition of X4-tropic HIV1 HXB2 gp120-mediated entry into human TZM-b1 cells expressing CD4,CXCR4,CCR5,luciferase and beta-galactosidase after 3 days by single cycle neutralization assay; settings: Human immunodeficiency virus 1, HXB2, TZM-b1, 72 h
[5] = Cytotoxicity against human TZM-b1 cells at >74 uM after 3 days by XTT assay; settings: tzm-b1, 72 h
[6] = as §1; settings: MT2 cells
[7] = Cytotoxicity against human TZM-b1 cells at >60 uM after 3 days by XTT assay; settings: tzm-b1, 72 h
[8] = Cytotoxicity against human TZM-b1 cells at >75.5 uM after 3 days by XTT assay; settings: tzm-b1, 72 h
[9] = Cytotoxicity against human TZM-b1 cells at >87 uM after 3 days by XTT assay; settings: tzm-b1, 72 h
[10] = Cytotoxicity against human TZM-b1 cells at >77.8 uM after 3 days by XTT assay; settings: tzm-b1, 72 h
[11] = Cytotoxicity against human TZM-b1 cells at >90 uM after 3 days by XTT assay; settings: tzm-b1, 72 h
[12] = Cytotoxicity against human TZM-b1 cells at >88 uM after 3 days by XTT assay; settings: tzm-b1, 72 h
MT2 [13] = experiment: Cytotoxicity against human MT2 cells at >88 uM after 4 days by XTT assay; settings: mt2, 96 h
[14] = Cytotoxicity against human TZM-b1 cells at >78.2 uM after 3 days by XTT assay; settings: tzm-b1, 72 h
[15] = Cytotoxicity against human TZM-b1 cells at >75.8 uM after 3 days by XTT assay; settings: tzm-b1, 72 h
[16] = Cytotoxicity against human TZM-b1 cells at >85 uM after 3 days by XTT assay; settings: tzm-b1, 72 h
MT2 [17] = experiment: Cytotoxicity against human MT2 cells at >41 uM after 4 days by XTT assay; settings: mt2, 96 h
[18] = Cytotoxicity against human TZM-b1 cells at >22 uM after 3 days by XTT assay; settings: tzm-b1, 72 h
MT2 [19] = experiment: Cytotoxicity against human MT2 cells at >[…] after 4 days by XTT assay; settings: mt2, 96 h
MT2 [20] = experiment: Cytotoxicity against human MT2 cells at >62 uM after 4 days by XTT assay; settings: mt2, 96 h
[21] = Cytotoxicity against human TZM-b1 cells at >84 uM after 3 days by XTT assay; settings: tzm-b1, 72 h

SMILES	CC50 (MT2 [1])	IC50 [2]	CC50 at 72 h [3]	IC50 [4]	further results
CCn1cc(NC(=O)C(=O)Nc2ccc(Cl)cc2)cn1	10.7 µM	11.9 µM	8 µM	5.9 µM	
COC(=O)[C@@H]1C[C@@H](NC(=O)C(=O)Nc2ccc(Cl)cc2)[C@H](c2ccccc2)N1		> 24.9 µM	> 99.6 µM	> 99.6 µM	
C[C@@H](NC(=O)C(=O)Nc1ccc(Cl)cc1)[C@H](c1ccccc1)N1CCOCC1		> 24.9 µM	> 99.6 µM	> 99.6 µM	
Cc1nc(C(NC(=O)C(=O)Nc2ccc(C(F)(F)F)cc2)C2CCCCN2)sc1CCO (stereo unspecified)	> 39 µM	17.4 µM	> 74 µM	4.9 µM	Activity [5]: 35%
CC1(C)CC(NC(=O)C(=O)Nc2ccc(Cl)cc2)CC(C)(C)N1		8 µM	> 60 µM	4.2 µM	CC50 at 96 h [6]: 150 µM; Activity [7]: 10%
Cc1nc(C(NC(=O)C(=O)Nc2ccc(C(F)(F)F)cc2)C2CCCCN2)sc1CO (mixture of isomers)		4.6 µM	> 75.5 µM	10.3 µM	Activity [8]: 10%
Cc1nc(C(NC(=O)C(=O)Nc2ccc(F)cc2F)C2CCCCN2)sc1CO (mixture of isomers)	> 110 µM	110 µM	> 87 µM	> 87 µM	
Cc1nc(C(NC(=O)C(=O)Nc2ccc(F)c(F)c2)C2CCCCN2)sc1CO (mixture of isomers)		14 µM	> 87 µM	8.4 µM	Activity [9]: 0%
CC(=O)c1ccc(NC(=O)C(=O)NC(c2nc(C)c(CO)s2)C2CCCCN2)cc1 (mixture of isomers)	> 107 µM	107 µM	> 86 µM	> 86 µM	
Cc1nc(C(NC(=O)C(=O)Nc2ccc(F)c(Cl)c2)C2CCCCN2)sc1CO (mixture of isomers)		9.5 µM	> 77.8 µM	6.5 µM	Activity [10]: 0%
Cc1nc(C(NC(=O)C(=O)Nc2ccc(F)cc2)C2CCCCN2)sc1CO (mixture of isomers)	> 113 µM	47.9 µM	> 90 µM	7.4 µM	Activity [11]: 0%
Cc1ccc(NC(=O)C(=O)NC(c2nc(C)c(CO)s2)C2CCCCN2)c(F)c1 (mixture of isomers)	> 109 µM	66 µM	> 88 µM	> 88 µM	
Cc1nc(C(NC(=O)C(=O)Nc2ccc(Cl)c(F)c2)C2CCCCN2)sc1CO (mixture of isomers)		3.8 µM	58.4 µM	1.6 µM	CC50 at 96 h [6]: 77.8 µM
Cc1ccc(NC(=O)C(=O)NC(c2nc(C)c(CO)s2)C2CCCCN2)cc1F (mixture of isomers)		5.3 µM	> 88 µM	2.7 µM	Activity [12]: 0%; Activity (MT2 [13]): 30%
Cc1nc(C(NC(=O)C(=O)NC2CCCCCC2)C2CCCCN2)sc1CO (mixture of isomers)		39.3 µM	> 90 µM	> 90 µM	
Cc1nc(C(NC(=O)C(=O)Nc2ccc(F)cc2F)C2CCCCN2)sc1CCO (mixture of isomers)	> 105 µM	> 105 µM	> 84 µM	> 84 µM	
Cc1nc(C(NC(=O)C(=O)Nc2ccc(F)c(F)c2)C2CCCCN2)sc1CCO (mixture of isomers)		24.1 µM	> 78.2 µM	8.2 µM	Activity [14]: 10%
CC(=O)c1ccc(NC(=O)C(=O)NC(c2nc(C)c(CCO)s2)C2CCCCN2)cc1 (mixture of isomers)	> 48.3 µM	24.5 µM	> 77.3 µM	> 77.3 µM	

SMILES	CC50 (MT2 [1])	IC50 [2]	CC50 at 72 h [3]	IC50 [4]	further results
Cc1nc(C(NC(=O)C(=O)Nc2ccc(F)c(Cl)c2)C2CCCCN2)sc1CCO (mixture of isomers)		19.5 µM	> 75.8 µM	9 µM	Activity [15]: 20%; CC50 at 96 h [6]: 94.7 µM
Cc1nc(C(NC(=O)C(=O)Nc2ccc(F)cc2)C2CCCCN2)sc1CCO (mixture of isomers)		21.6 µM	> 88 µM	22 µM	CC50 at 96 h [6]: 109 µM
Cc1ccc(NC(=O)C(=O)NC(c2nc(C)c(CCO)s2)C2CCCCN2)c(F)c1 (mixture of isomers)		45.8 µM	> 78.8 µM	> 78.8 µM	
Cc1ccc(NC(=O)C(=O)NC(c2nc(C)c(CCO)s2)C2CCCCN2)cc1F (mixture of isomers)		3.7 µM	> 85 µM	1.66 µM	Activity [16]: 40%; CC50 at 96 h [6]: 85 µM
Cc1nc(C(NC(=O)C(=O)Nc2ccc(Cl)c(F)c2)C2CCCCN2)sc1CCO (mixture of isomers)	> 41 µM	3.5 µM	61 µM	1.98 µM	Activity (MT2 [17]): 10%
Cc1nc(C(NC(=O)C(=O)NC2CCCCCC2)C2CCCCN2)sc1CCO (mixture of isomers)		19.6 µM	> 88 µM	> 88 µM	CC50 at 96 h [6]: 60 µM
Cc1nc(C(NC(=O)C(=O)Nc2ccc(Cl)cc2)C2CCCCN2)sc1CO (mixture of isomers)	> 108 µM	4.7 µM	> 22 µM	4.3 µM	Activity [18]: 10%; Activity (MT2 [19]): 40%
Cc1nc(C(NC(=O)C(=O)Nc2ccc(Cl)cc2)C2CCCNC2)sc1CO (mixture of isomers)	> 81 µM	12 µM	60.2 µM	1.4 µM	
Cc1nc(C(NC(=O)C(=O)Nc2ccc(Cl)cc2)C2CCCCN2)sc1CCO (mixture of isomers)	> 62 µM	4.2 µM		4.6 µM	Activity (MT2 [20]): 0%; CC50 [3]: 32.8 µM
Cc1nc(C(NC(=O)C(=O)Nc2ccc(Cl)cc2)C2CCCNC2)sc1CCO (mixture of isomers)	> 78.5 µM	13.1 µM	59.4 µM	0.65 µM	
Cc1nc(C(NC(=O)C(=O)Nc2ccc(Cl)cc2)C2CCCCN2C)sc1CCO (mixture of isomers)		28.6 µM		1.9 µM	CC50 at 96 h [6]: 88 µM; CC50 [3]: 36 µM
CC(=O)N1CCCCC1C(NC(=O)C(=O)Nc1ccc(Cl)cc1)c1nc(C)c(CCO)s1 (mixture of isomers)		> 52 µM	> 84 µM	19.7 µM	Activity [21]: 20%
Cc1nc(C(NC(=O)C(=O)Nc2ccc(Cl)cc2)C2CCCN2)sc1CO (mixture of isomers)		15.4 µM		4.8 µM	CC50 at 96 h [6]: 45 µM; CC50 [3]: 12.4 µM
Cc1nc(C(NC(=O)C(=O)Nc2ccc(Cl)cc2)C2CCCN2)sc1CCO (mixture of isomers)		16.2 µM	4.9 µM	4.2 µM	CC50 at 96 h [6]: 42 µM
Cc1nc(C(NC(=O)C(=O)Nc2ccc(Cl)cc2)C2CCNCC2)sc1CO (racemic)	> 81 µM	29.8 µM	81 µM	0.83 µM	
Cc1nc(C(NC(=O)C(=O)Nc2ccc(Cl)cc2)C2CCNCC2)sc1CCO (racemic)	> 78.5 µM	30.5 µM	85.4 µM	1 µM	
CNCC(NC(=O)C(=O)Nc1ccc(Cl)cc1)c1nc(C)c(CCO)s1 (racemic)	> 43 µM	24.3 µM		2.8 µM	CC50 [3]: 16.6 µM
